Results published in patent US10047151B2, “Methods for the treatment of cancer and inflammatory diseases using cereblon as a predictor” (Celgene Corporation, priority 2011, dated 2018).

Assays:
Format in all cases: cell-based
U266B1 cells [1] = experiment: Cell cycle progression (cells in S phase) in siRNA-transfected U266B1 cells; conditions: control mock and negative control siRNA-transfected cells; average of 3 days of treatment; pomalidomide 1 μM, lenalidomide 10 μM
Experimental: Drugs such as lenalidomide and pomalidomide have direct anti-proliferative activity against MM cells by inducing cell cycle arrest in G1 phase, followed by a decrease in viability. To study the role of CRBN in lenalidomide and other drugs anti-proliferative activities, H929 and U266B1 cells, two sensitive myeloma lines, were transfected with CRBN-siRNAs or control siRNAs for 24, 48, 72 and 96 hours. Cells were treated 24 h after transfection with DMSO (0.1%), pomalidomide (1 μM) and lenalidomide (10 μM) for 1, 2, 3 days to evaluated the compound effect on CRBN protein, mRNA expression and the effect on cell cycle and proliferation. […] CRBN down regulation was confirmed by RT-PCR and Western blot using the CRBN70 antibody (FIG. 1).
Knockdown of CRBN markedly abrogated the lenalidomide and pomalidomide-induced delay in cell cycle progression in U266B1 cells. Id.

pRb = pRb phosphorylation in H929 cells (Western blot)
IRF4 [2] = experiment: IRF4 protein level in H929 cells (Western blot)
Excerpt: In H929 cells, the cell cycle arrest in G1 phase by the drugs coincides with a reduction of tumor suppressor, pRb, phosphorylation and the oncogene and myeloma survival factor IRF4.

U266B1 cells [3] = experiment: Gene expression profile by microarray in U266B1 cells; conditions: negative control siRNA-transfected U266B1 cells; pomalidomide 1 μM, lenalidomide 10 μM; ±1.7 fold, P<0.05
Experimental: Gene expression profile using microarray technology identified 759 or 609 genes differentially modulated in negative control siRNA-transfected U266B1 cells treated with pomalidomide (1 μM) or lenalidomide (10 μM) compared to DMSO treated control (±1.7 fold; P<0.05 ANOVA p-value) (FIGS. 5A & 5B).

poly-ubiquitin chains = experiment: Global polyubiquitination by immunofluorescence in H929 cells; conditions: 1 μM, 30 minutes
Experimental: Specific antibodies for poly-ubiquitin chains were used to study the effect of immunomodulatory drugs on global levels of ubiquitination. H929 cells were treated with lenalidomide (1 μM), pomalidomide (1 μM) or proteasome inhibitor MG132. After 30 minutes cells were process for immunofluorescence. Global levels of K63-linked polyubiquitination were quantified by Cellomics.

OCI-Ly10 = experiment: Apoptosis of DLBCL cells
Excerpt: In order to define the place of lenalidomide for DLBCL therapy in specific patient populations and to understand the molecular mechanisms of efficacy, a panel of DLBCL cell lines was collected in this study. The DLBCL subtypes of the cell lines were confirmed based on literature information (Lenz G, et al., Proc Natl Acad Sci USA 2008; 105: 13520-5) and molecular analysis, including intracellular NF-κB activity or IRF4 expression, as well as gene expression profiling of key signature genes of activated B cells.

IRF4 [4] = experiment: IRF4 protein expression in ABC-DLBCL cells (Western blot)
Experimental: Cells were treated with test compounds or 0.1% DMSO for indicated times. Following incubation, cells were collected, pelleted with centrifugation, and immediately lysed in 0.1 ml lysis buffer containing 10 mM Tris-HCl pH 8.0, 10 mM EDTA, 150 mM NaCl, 1% NP-40, 0.5% SDS, 1 mM DTT, 1 mM Na3VO4, plus Complete protease inhibitor cocktail (Roche Applied Science, Indianapolis, Ind.), then processed with a Qiashredder™ (Qiagen, Valencia, Calif.) for 1 minute and frozen on dry ice. Samples were diluted with 6×SDS sample buffer and then boiled for 5 min. Approximately 30 μl of this mixture was loaded per lane on a Criterion Precast 4-12% Tris-HCl gel (Bio-Rad, Hercules, Calif.), electrophoresed, and transferred to nitrocellulose membranes (Bio-Rad, Hercules, Calif.). The membranes were blocked for 1 hour at room temperature using blocking buffer (LI-COR Biosciences, Lincoln, Nebr.), then incubated overnight at 4° C. with antibodies against either BCL-10, IRF4, CRBN or β-actin. Membranes were washed and incubated with IRDye Secondary Antibodies (1:30,000) for 1 hour at room temperature. A standard protocol was then followed for signal detection, using the Odyssey® Infrared Imaging System and software (LI-COR Biosciences, Lincoln, Nebr.).
To understand the molecular mechanism of lenalidomide on ABC-DLBCL cells, the effects of lenalidomide on IRF4 expression in these cells were investigated. […] Lenalidomide-induced decrease of IRF4 expression occurred as early as 1 day of drug treatment, with similar kinetics to that of the inhibitors (zVRPR-fmk and LY-333,531, respectively) of MALT1 and PKCβ, two key enzymes involved in NF-κB activation upon BCR engagement in B cells.

NF-κB = NF-κB subunit DNA binding ELISA on nuclear extracts
Experimental: Logarithmically growing DLBCL cells were treated with test agents as indicated. Nuclear extracts were prepared using a Nuclear Extract Kit (Active Motif, Carlsbad, Calif.) and protein concentration was determined by the bicinchoninic acid assay (Thermo Scientific, Rockford, Ill.). Detection of NF-κB activity was performed using a sensitive oligo-based colorimetric enzyme-linked immunosorbent assay (ELISA) method, according to the instructions of the manufacturer (Active Motif). Briefly, nuclear extracts of DLBCL cells were hybridized to 96-well plates coated with wild-type DNA oligonucleotides containing a single copy of the NF-κB consensus binding sequence. Bound NF-κB protein was then detected with antibodies specific for p50, p65 (Rel A) or […] subunits. A secondary antibody conjugated to horseradish peroxidase was added and plates were then read by spectrophotometry at 450 nm with a reference wavelength of 655 nm. NF-κB activity was calculated based on OD450/655 nm.
The effect of lenalidomide on NF-κB activity in various DLBCL cells was examined by measuring the level of NF-κB subunit proteins binding to consensus sequences and the NF-κB-driven luciferase activity. […] In contrast, lenalidomide had no effect on NF-κB DNA binding in GCB-DLBCL lines nor in normal peripheral blood mononuclear cells.

Nc1cccc2c1CN(C1CCC(=O)NC1=O)C2=O (stereo not drawn) [lenalidomide, 3-(4-amino-1-oxo-1,3-dihydro-isoindol-2-yl)-piperidine-2,6-dione]
delay of cell cycle progression, measured as the decrease of the number of cells in S phase (U266B1 cells [1]): 40% | phosphorylation of pRB (pRb): decreased | total level of protein IRF4 (IRF4 [2]): decreased | genes differentially modulated compared to DMSO treated control (U266B1 cells [3]): 609 genes | K-63-linked ubiquitination (poly-ubiquitin chains): but not K-63-linked ubiquitination | total K48-linked polyubiquitination (poly-ubiquitin chains): decrease | apoptosis of sensitive cell lines (OCI-Ly10): induced apoptosis | IRF4 levels (IRF4 [4]; OCI-Ly3 cells, 1-3 day treatments): neither lenalidomide nor the PKCβ inhibitor had any appreciable effect | IRF4 protein levels (IRF4 [4]; sensitive cell lines U2932 and OCI-Ly10, treatment for 1-3 days): significantly downregulate | NF-κB DNA binding (NF-κB; GCB-DLBCL lines and normal peripheral blood mononuclear cells): no effect | NF-κB inhibition (NF-κB; lenalidomide-insensitive ABC-DLBCL OCI-Ly3 line with CARD11 mutation): not by lenalidomide | DNA binding by Rel A/p65, p50 and c-rel/p70 NF-κB subunits (NF-κB; several ABC-DLBCL cell lines, concentration-dependent): partially inhibited
